Results: ChEMBL document CHEMBL1201862, “PubChem BioAssay data set” (2004)
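Five compound concentrations were applied to cells in 96-well plates for 48 hours; endpoints were derived by simple linear interpolation of the resulting dose-response curve. GI50 is the concentration that inhibits growth by half.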 Calls of active or inactive are those of the source. Rule as the data show it: active = GI50 up to about 1.1 µM and inactive = higher.

Tests used:
Experiment in all cases: NCI-60 cell line screen, 48 h
[1] = tested on: A549
[2] = tested on: ACHN
[3] = tested on: COLO 205
[4] = tested on: HCT-116
[5] = tested on: HOP-92
[6] = tested on: HT-29
[7] = tested on: IGROV-1
[8] = tested on: KM12
[9] = tested on: LXFL 529
[10] = tested on: MOLT-4
[11] = tested on: Malme-3M
[12] = tested on: NCI-H226
[13] = tested on: OVCAR-8
[14] = tested on: RPMI-8226
[15] = tested on: SF-539
[16] = tested on: SNB-75
[17] = tested on: SW-620

Measured: GI50

COc1ccc(-c2[nH]c3ccccc3c2CCNS(=O)(=O)c2ccc(C)cc2)cc1
inactive: [1] 6.05 µM | [2] > 8.59 µM | [3] 1.83 µM | [4] > 8.85 µM | [5] > 10 µM | [6] 6.35 µM | [7] > 6.34 µM | [8] 6.82 µM | [9] > 10 µM | [10] 4.21 µM | [11] > 10 µM | [12] > 7.6 µM | [13] > 7.91 µM | [14] 4.68 µM | [15] > 10 µM | [16] > 10 µM | [17] > 10 µM

O=C1CCC(=O)c2ccccc2N1
inactive: [1] > 100 µM | [2] > 100 µM | [3] > 100 µM | [4] > 100 µM | [5] > 100 µM | [6] > 100 µM | [7] > 100 µM | [8] > 100 µM | [9] > 100 µM | [10] > 100 µM | [11] > 100 µM | [12] > 100 µM | [13] > 100 µM | [14] > 100 µM | [15] > 100 µM | [16] > 100 µM | [17] > 100 µM

Nc1nc2c(ncn2C2OC(CO)C(O)C2O)c(=O)o1 (stereo not drawn)
inactive: [1] > 100 µM | [2] > 83.8 µM | [3] > 42 µM | [4] > 82.2 µM | [5] > 100 µM | [6] 26.4 µM | [7] > 100 µM | [8] > 100 µM | [9] > 100 µM | [11] > 100 µM | [12] > 100 µM | [13] > 100 µM | [14] > 52.8 µM | [15] > 100 µM | [16] > 100 µM | [17] > 33.4 µM

Cc1nc2ccccc2c(=O)n1-c1ccccc1F
inactive: [1] > 100 µM | [2] > 100 µM | [3] > 100 µM | [4] > 100 µM | [5] > 100 µM | [6] > 100 µM | [7] > 100 µM | [8] > 100 µM | [9] > 100 µM | [10] > 100 µM | [11] > 100 µM | [12] > 100 µM | [13] > 100 µM | [15] > 100 µM | [16] 30.2 µM | [17] > 100 µM

C=C(CO)CC(O)c1cc(OC)ccc1OC (stereo not drawn)
inactive: [1] > 100 µM | [2] > 100 µM | [3] > 100 µM | [5] > 100 µM | [6] > 100 µM | [7] > 100 µM | [8] > 100 µM | [9] > 100 µM | [10] > 100 µM | [11] > 100 µM | [12] > 100 µM | [13] > 100 µM | [14] > 100 µM | [15] > 100 µM | [16] > 100 µM | [17] > 100 µM

OCCN1CCN2C=C(C3CCCC4N(CCO)CCN34)CCC21 (stereo not drawn)
inactive: [1] > 100 µM | [2] > 49.2 µM | [3] > 65.2 µM | [4] 24.9 µM | [5] > 60.8 µM | [6] 68.9 µM | [7] 76 µM | [8] > 95.7 µM | [9] 43.8 µM | [10] 13.9 µM | [11] > 79.8 µM | [12] > 91 µM | [13] 35.2 µM | [14] 8.04 µM | [15] 33.7 µM | [16] 34.8 µM | [17] 23.6 µM

CCCCCCCCCCCCCC(=O)OCC1OC(n2cc(F)c(=O)[nH]c2=O)C(NC(=O)OCc2ccccc2)C(OC(=O)CCCCCCCCCCCCC)C1O (stereo not drawn)
inactive: [1] > 100 µM | [2] > 100 µM | [3] > 100 µM | [4] > 100 µM | [5] > 100 µM | [6] > 100 µM | [7] > 100 µM | [8] > 100 µM | [9] > 100 µM | [10] > 100 µM | [11] > 100 µM | [12] > 100 µM | [13] > 100 µM | [14] > 100 µM | [15] > 100 µM | [16] > 100 µM | [17] > 100 µM

Cc1ccc(S(=O)(=O)N2CCC3(C(/C=C/c4ccccc4)=Nc4ccccc43)C2c2ccccc2)cc1 (stereo not drawn)
inactive: [1] > 100 µM | [2] > 100 µM | [3] > 100 µM | [4] > 100 µM | [5] > 100 µM | [6] > 100 µM | [7] 1.41 µM | [8] > 100 µM | [9] > 100 µM | [11] > 100 µM | [12] 37.9 µM | [13] > 100 µM | [14] > 100 µM | [15] > 100 µM | [16] 87.3 µM | [17] 1.52 µM

N#C/C(=C1\OC(=N)C(c2ccc(Cl)cc2)=C1O)c1ccc(Cl)cc1
inactive: [1] 20.5 µM | [2] 17.6 µM | [3] 18.8 µM | [4] 17.3 µM | [5] 17.9 µM | [6] 18.9 µM | [7] 15.7 µM | [8] 16.6 µM | [9] 11.7 µM | [10] 17.3 µM | [11] 19.1 µM | [12] 10 µM | [13] 13.5 µM | [14] 19 µM | [15] 14.5 µM | [16] 17.5 µM | [17] 13.2 µM

COC(=O)OCC1OC(N2C(=O)NC(=O)C(Br)C2N=[N+]=[N-])CC1OC(=O)OC (stereo not drawn)
inactive: [1] > 100 µM | [2] > 100 µM | [3] > 100 µM | [4] > 100 µM | [5] > 100 µM | [6] > 100 µM | [7] > 100 µM | [8] > 100 µM | [9] > 100 µM | [11] > 100 µM | [12] > 100 µM | [13] > 100 µM | [14] > 100 µM | [15] > 100 µM | [16] > 100 µM | [17] > 100 µM

COc1ccc2c(c1)[n+]([O-])c(C(=O)C/C(=N/NC(=O)C[N+](C)(C)C)C(=O)Nc1cccc(C)c1C)c(C)[n+]2[O-]
inactive: [1] > 100 µM | [2] > 100 µM | [3] > 100 µM | [4] > 100 µM | [5] 59 µM | [6] > 100 µM | [7] > 100 µM | [8] 6.34 µM | [9] > 100 µM | [11] > 100 µM | [12] > 100 µM | [13] > 100 µM | [14] > 100 µM | [15] > 100 µM | [16] > 100 µM | [17] > 100 µM

CC(=O)OC[C@]1(O)CC[C@@]23CC1C[C@@H]2CCC1C(C)(C)CCC[C@@]13C (stereo partly drawn)
inactive: [1] 15.8 µM | [2] 15.7 µM | [3] 17.8 µM | [4] 11.9 µM | [5] 14.4 µM | [6] 13 µM | [7] 19.7 µM | [8] 13 µM | [9] 11.2 µM | [10] 1.77 µM | [11] 15.6 µM | [12] 15.8 µM | [13] 16.6 µM | [14] 9.23 µM | [15] 16.4 µM | [16] 16.1 µM | [17] 10.7 µM
